# Legend:
# Assay type in all cases: in vivo
# [1] = test system: barnyardgrass (Echinochloa crus-galli); assay: Test A preemergence; settings: Echinochloa crus-galli, pre-emergence, 240 h, Preemergence
# Summary of the method: (§1)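 Ratings of 0 (no effect) to 100 (complete control) come from visual comparison with untreated controls roughly 10 d after treatment. Test chemicals, formulated in a non-phytotoxic solvent mixture with surfactant, were applied either as a preemergence directed soil spray on seeded soil or postemergence to one- to two-leaf plants 2 to 10 cm tall.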
# Kochia (Kochia scoparia) [2] = assay: Test A preemergence; settings: Bassia scoparia, pre-emergence, 240 h, Preemergence
# Summary of the method: as §1
# [3] = test system: ragweed (common ragweed, Ambrosia elatior); assay: Test A preemergence; settings: Ambrosia artemisiifolia, pre-emergence, 240 h, Preemergence
# Summary of the method: as §1
# [4] = test system: giant foxtail (Setaria faberii); assay: Test A preemergence; settings: Setaria faberi, pre-emergence, 240 h, Preemergence
# Summary of the method: as §1
# [5] = test system: pigweed (Amaranthus retroflexus); assay: Test A preemergence; settings: Amaranthus retroflexus, pre-emergence, 240 h, Preemergence
# [6] = test system: ryegrass, Italian (Italian ryegrass, Lolium multiflorum); assay: Test A preemergence; settings: Lolium multiflorum, pre-emergence, 240 h, Preemergence
# Summary of the method: as §1
# [7] = test system: barnyardgrass (Echinochloa crus-galli); assay: Test B flooded paddy test; settings: Echinochloa crus-galli, 360 h, Flood, 250 g ai/ha; visually evaluated after 13 to 15 d; read-out: Plant response rating, Barnyardgrass (0 to 100 scale where 0 is no effect and 100 is complete control)
# Summary of the method: (§2)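 Percent control, visually estimated after 13–15 d in the greenhouse on a 0–100 basis, compares treated pots with untreated ones; compound was put into paddy water 3 cm above the soil when plants had two leaves.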
# [8] = test system: sedge, umbrella (small-flower umbrella sedge, Cyperus difformis); assay: Test B flooded paddy test; settings: Cyperus difformis, 360 h, Flood, 250 g ai/ha; visually evaluated after 13 to 15 d; read-out: Plant response rating, Sedge, Umbrella (0 to 100 scale where 0 is no effect and 100 is complete control)
# Summary of the method: as §2
# [9] = test system: ducksalad (Heteranthera limosa); assay: Test B flooded paddy test; settings: Heteranthera limosa, 360 h, Flood, 250 g ai/ha; visually evaluated after 13 to 15 d; read-out: Plant response rating, Ducksalad (0 to 100 scale where 0 is no effect and 100 is complete control)
# Summary of the method: as §2
# rice (Oryra sativa) = assay: Test B flooded paddy test; settings: Oryza sativa, 360 h, Flood, 250 g ai/ha; visually evaluated after 13 to 15 d; read-out: Plant response rating, Rice (0 to 100 scale where 0 is no effect and 100 is complete control)
# Summary of the method: as §2
# [10] = test system: barnyardgrass (Echinochloa crus-galli); assay: Test A postemergence; settings: Echinochloa crus-galli, post-emergence, 240 h, Postemergence
# Summary of the method: as §1
# Kochia (Kochia scoparia) [11] = assay: Test A postemergence; settings: Bassia scoparia, post-emergence, 240 h, Postemergence
# Summary of the method: as §1
# [12] = test system: wheat (Triticum aestivum); assay: Test A postemergence; settings: Triticum aestivum, post-emergence, 240 h, Postemergence
# Summary of the method: as §1
# [13] = test system: ragweed (common ragweed, Ambrosia elatior); assay: Test A postemergence; settings: Ambrosia artemisiifolia, post-emergence, 240 h, Postemergence
# Summary of the method: as §1
# [14] = test system: Galium (catchweed bedstraw, Galium aparine); assay: Test A postemergence; settings: Galium, post-emergence, 240 h, Postemergence
# Summary of the method: as §1
# corn (Zea mays) = assay: Test A postemergence; settings: Zea mays, post-emergence, 240 h, Postemergence
# Summary of the method: as §1
# [15] = test system: giant foxtail (Setaria faberii); assay: Test A postemergence; settings: Setaria faberi, post-emergence, 240 h, Postemergence
# Summary of the method: as §1
# [16] = test system: blackgrass (Alopecurus myosuroides); assay: Test A postemergence; settings: Alopecurus myosuroides, post-emergence, 240 h, Postemergence
# Summary of the method: as §1
# [17] = test system: pigweed (Amaranthus retroflexus); assay: Test A postemergence; settings: Amaranthus retroflexus, post-emergence, 240 h, Postemergence
# Summary of the method: as §1
# [18] = test system: ryegrass, Italian (Italian ryegrass, Lolium multiflorum); assay: Test A postemergence; settings: Lolium multiflorum, post-emergence, 240 h, Postemergence
# Summary of the method: as §1
compound,measurement,setting,value
CN1C[C@H](c2ccc(Cl)cc2)[C@@H](C(=O)Nc2cccc(F)n2)C1=O [Compound 1399],pest or weed control at 31 g/ha,"[1]; 31 g ai/ha, 0 to 100 scale where 0 is no effect and 100 is complete control, read-out: Barnyardgrass plant response rating",80%
same,pest or weed control at 125 g/ha,"[1]; 125 g ai/ha, 0 to 100 scale (0 no effect, 100 complete control), read-out: Plant response rating, Barnyardgrass",90%
same,pest or weed control at 31 g/ha,"Kochia (Kochia scoparia) [2]; 31 g ai/ha, 0 to 100 scale where 0 is no effect and 100 is complete control, read-out: Kochia plant response rating",20%
same,pest or weed control at 125 g/ha,"Kochia (Kochia scoparia) [2]; 125 g ai/ha, 0 to 100 scale (0 no effect, 100 complete control), read-out: Plant response rating, Kochia",70%
same,pest or weed control at 31 g/ha,"[3]; 31 g ai/ha, 0 to 100 scale where 0 is no effect and 100 is complete control, read-out: Ragweed plant response rating",50%
same,pest or weed control at 125 g/ha,"[3]; 125 g ai/ha, 0 to 100 scale (0 no effect, 100 complete control), read-out: Plant response rating, Ragweed",60%
same,pest or weed control at 31 g/ha,"[4]; 31 g ai/ha, 0 to 100 scale where 0 is no effect and 100 is complete control, read-out: Foxtail, Giant plant response rating",90%
same,pest or weed control at 125 g/ha,"[4]; 125 g ai/ha, 0 to 100 scale (0 no effect, 100 complete control), read-out: Plant response rating, Foxtail, Giant",90%
same,pest or weed control at 31 g/ha,"[5]; 31 g ai/ha, 0 to 100 scale where 0 is no effect and 100 is complete control, read-out: Pigweed plant response rating",30%
same,pest or weed control at 125 g/ha,"[5]; 125 g ai/ha, 0 to 100 scale (0 no effect, 100 complete control), read-out: Plant response rating, Pigweed",30%
same,pest or weed control at 31 g/ha,"[6]; 31 g ai/ha, 0 to 100 scale where 0 is no effect and 100 is complete control, read-out: Ryegrass, Italian plant response rating",0%
same,pest or weed control at 125 g/ha,"[6]; 125 g ai/ha, 0 to 100 scale (0 no effect, 100 complete control), read-out: Plant response rating, Ryegrass, Italian",40%
same,pest or weed control at 250 g/ha,[7],85%
same,pest or weed control at 250 g/ha,[8],0%
same,pest or weed control at 250 g/ha,[9],100%
same,pest or weed control at 250 g/ha,rice (Oryra sativa),15%
same,pest or weed control at 31 g/ha,"[10]; 31 g ai/ha, 0 is no effect, 100 is complete control, read-out: Barnyardgrass plant response rating (0 to 100 scale)",90%
same,pest or weed control at 125 g/ha,"[10]; 125 g ai/ha, visual injury after approx. 10 d, 0 to 100 scale, 0 no effect, 100 complete control, read-out: Plant response rating, Barnyardgrass",90%
same,pest or weed control at 31 g/ha,"Kochia (Kochia scoparia) [11]; 31 g ai/ha, 0 is no effect, 100 is complete control, read-out: Kochia plant response rating (0 to 100 scale)",50%
same,pest or weed control at 125 g/ha,"Kochia (Kochia scoparia) [11]; 125 g ai/ha, visual injury after approx. 10 d, 0 to 100 scale, 0 no effect, 100 complete control, read-out: Plant response rating, Kochia",70%
same,plant injury at 31 g/ha,"[12]; 31 g ai/ha, 0 is no effect, 100 is complete control, read-out: Wheat plant response rating (0 to 100 scale)",0%
same,plant injury at 125 g/ha,"[12]; 125 g ai/ha, visual injury after approx. 10 d, 0 to 100 scale, 0 no effect, 100 complete control, read-out: Plant response rating, Wheat",20%
same,pest or weed control at 31 g/ha,"[13]; 31 g ai/ha, 0 is no effect, 100 is complete control, read-out: Ragweed plant response rating (0 to 100 scale)",0%
same,pest or weed control at 125 g/ha,"[13]; 125 g ai/ha, visual injury after approx. 10 d, 0 to 100 scale, 0 no effect, 100 complete control, read-out: Plant response rating, Ragweed",40%
same,pest or weed control at 31 g/ha,"[14]; 31 g ai/ha, 0 is no effect, 100 is complete control, read-out: Galium plant response rating (0 to 100 scale)",40%
same,pest or weed control at 125 g/ha,"[14]; 125 g ai/ha, visual injury after approx. 10 d, 0 to 100 scale, 0 no effect, 100 complete control, read-out: Plant response rating, Galium",60%
same,plant injury at 31 g/ha,"corn (Zea mays); 31 g ai/ha, 0 is no effect, 100 is complete control, read-out: Corn plant response rating (0 to 100 scale)",0%
same,"Corn plant response rating (crop injury, 0 = no effect, 100 = complete kill) at 125 g/ha","corn (Zea mays); 125 g ai/ha, visual injury after approx. 10 d, 0 to 100 scale, 0 no effect, 100 complete control",0%
same,pest or weed control at 31 g/ha,"[15]; 31 g ai/ha, 0 is no effect, 100 is complete control, read-out: Foxtail, Giant plant response rating (0 to 100 scale)",70%
same,pest or weed control at 125 g/ha,"[15]; 125 g ai/ha, visual injury after approx. 10 d, 0 to 100 scale, 0 no effect, 100 complete control, read-out: Plant response rating, Foxtail, Giant",90%
same,pest or weed control at 31 g/ha,"[16]; 31 g ai/ha, 0 is no effect, 100 is complete control, read-out: Blackgrass plant response rating (0 to 100 scale)",20%
same,pest or weed control at 125 g/ha,"[16]; 125 g ai/ha, visual injury after approx. 10 d, 0 to 100 scale, 0 no effect, 100 complete control, read-out: Plant response rating, Blackgrass",20%
same,pest or weed control at 31 g/ha,"[17]; 31 g ai/ha, 0 is no effect, 100 is complete control, read-out: Pigweed plant response rating (0 to 100 scale)",0%
same,pest or weed control at 125 g/ha,"[17]; 125 g ai/ha, visual injury after approx. 10 d, 0 to 100 scale, 0 no effect, 100 complete control, read-out: Plant response rating, Pigweed",40%
same,pest or weed control at 31 g/ha,"[18]; 31 g ai/ha, 0 is no effect, 100 is complete control, read-out: Ryegrass, Italian plant response rating (0 to 100 scale)",20%
same,pest or weed control at 125 g/ha,"[18]; 125 g ai/ha, visual injury after approx. 10 d, 0 to 100 scale, 0 no effect, 100 complete control, read-out: Plant response rating, Ryegrass, Italian",20%

# Reference: patent US12077503B2, “Substituted cyclic amides and their use as herbicides” (FMC CORPORATION, priority 2015, dated 2024)
